According to patent US20260345641A1, “COMPOSITIONS AND USES THEREOF” (Algorae Pharmaceuticals Ltd, priority 2023, published 2026):

Tested on: SH-SY5Y cells
Experiment: Gene expression analysis by RNA sequencing in the presence of Aβ
Format: cell-based, human
Details: 5 μM, with Aβ
Text: The SH-S5Y5 neuroblastoma cell line was used for pre-clinical analysis. The SH-S5Y5 cell line is commonly used as a model for neurodegenerative disorders as the cells can be converted to various types of functional neurons by the addition of specific compounds (see, e.g., Xicoy et al., 2017, Molecular Neurodegeneration, 12: 10). In addition, the SH-S5Y5 cell line has been used widely in experimental neurological studies, including analysis of neuronal differentiation, metabolism, and function related to neurodegenerative processes, neurotoxicity and neuroprotection (see, e.g., Datki et al., 2003, Brain Research Bulletin, 62(3): 22-229; and Xie et al., 2010, Chinese Medical Journal, 123(8): 1086-1092).
Total RNA was isolated from cells using TRIzol in accordance with the manufacturer's instructions (Invitrogen, Carlsbad, CA, USA). RNA concentration and quality was assessed using a NanoDrop spectrophotometer. Only samples with a 260/280 ratio of ≥1.8 were used for further analysis.
Messenger RNA (mRNA) was purified from total RNA using poly-T oligo attached magnetic beads. After fragmentation, cDNA synthesis was performed in accordance with the manufacturer's instructions (Illumina, San Diego, CA, USA) to generate a directional and non-directional library. Libraries were checked with Qubit, real-time PCR was performed for quantification, and size distribution detection was performed using the Bioanalyzer. Quantified libraries were pooled and sequenced on an Illumina platform, according to the manufacturer's instructions.
Raw reads were filtered and mapped to human reference genome (GRCh38/hg38) using HISAT2. Differential gene expression analysis was performed using R Package DEG seq2. […] Manual annotation of genes previously associated with specific neurodegenerative disorders and dementias was performed following a text mining analysis.

Work on `COc1cc2c(cc1OC)C(=O)C(CC1CCN(Cc3ccccc3)CC1)C2` (stereo not shown) [Donepezil] yielded an ATP13A2 gene expression (control 7.789, P 0.022) of 5.931, a TUBB4A gene expression (control 7.889, P 0.013) of 12.522 and a C19orf12 gene expression (control 8.149, P 0.002) of 8.062. It also gave a COMT gene expression (control 8.395, P 0.009) of 7.242, a CLCN6 gene expression (control 8.460, P 0.007) of 9.489 and an SLC2A1 gene expression (control 8.472, P 0.018) of 9.539. The KIF5A gene expression (control 8.491, P 0.023) was 7.978, the MT-TE gene expression (control 8.733, P 0.049) was 14.784 and the ASTN2 gene expression (control 8.739, P 0.008) was 10.467. It also gave a GAP43 gene expression (control 8.840, P 0.016) of 14.884, an HTRA1 gene expression (control 8.986, P 0.035) of 3.452 and a GPT2 gene expression (control 9.062, P 0.018) of 9.323. The RELN gene expression (control 9.086, P 0.007) was 8.830, the MAP2 gene expression (control 9.232, P 0.018) was 13.284 and the FAR1 gene expression (control 9.502, P 0.001) was 9.330. For the same compound, the ULK1 gene expression (control 9.616, P 0.008) was 7.435, the MT-TR gene expression (control 9.625, P 0.053) was 7.395 and the AUH gene expression (control 9.982, P 0.001) was 9.689. It also gave a UBQLN2 gene expression (control 10.132, P 0.055) of 10.681, a TP53 gene expression (control 10.247, P 0.010) of 10.184 and an RNF216 gene expression (control 10.517, P 0.005) of 11.360. The LMNB1 gene expression (control 10.575, P 0.020) was 13.789, the SDHA gene expression (control 10.591, P 0.002) was 10.690 and the CTSF gene expression (control 10.619, P 0.034) was 12.207. For the same compound, the PHIP gene expression (control 10.884, P 0.000) was 10.131, the NEAT1 gene expression (control 10.972, P 0.010) was 8.854 and the GSR gene expression (control 10.993, P 0.009) was 14.077. For the same compound, the NBEA gene expression (control 11.016, P 0.010) was 12.180, the HEXB gene expression (control 11.029, P 0.010) was 11.767 and the NIPA1 gene expression (control 11.189, P 0.025) was 10.862. The PDGFRA gene expression (control 11.237, P 0.009) was 11.624, the SORT1 gene expression (control 11.268, P 0.004) was 9.054 and the DLAT gene expression (control 11.385, P 0.035) was 10.390. For the same compound, the CTSA gene expression (control 11.863, P 0.001) was 12.014, the AIFM1 gene expression (control 11.948, P 0.026) was 10.769 and the KIF4A gene expression (control 12.106, P 0.000) was 12.317. For the same compound, the PIK3CA gene expression (control 12.209, P 0.057) was 9.685, the MT-TM gene expression (control 12.408, P 0.006) was 7.334 and the PSEN1 gene expression (control 12.549, P 0.033) was 10.463. It also gave a CST3 gene expression (control 12.563, P 0.049) of 14.607, a PNKP gene expression (control 12.578, P 0.015) of 13.753 and a UBE4A gene expression (control 12.586, P 0.050) of 11.589. For the same compound, the PANK2 gene expression (control 12.767, P 0.010) was 5.414, the PINK1 gene expression (control 12.825, P 0.001) was 9.640 and the SERPINI1 gene expression (control 12.857, P 0.025) was 12.924. It also gave an NEFL gene expression (control 13.063, P 0.010) of 22.943, a TOMM40 gene expression (control 13.758, P 0.001) of 15.441 and a PMPCA gene expression (control 13.790, P 0.022) of 11.969. The PRKAR1B gene expression (control 13.838, P 0.000) was 14.889, the NGF gene expression (control 14.274, P 0.012) was 1.165 and the EIF2B5 gene expression (control 14.483, P 0.017) was 12.247. It also gave an NEFH gene expression (control 14.777, P 0.018) of 13.335, a TBK1 gene expression (control 15.661, P 0.052) of 12.891 and an SPG21 gene expression (control 15.666, P 0.035) of 17.306. For the same compound, the MIR103A2 gene expression (control 15.688, P 0.029) was 9.508, the DNAJC5 gene expression (control 16.143, P 0.004) was 18.101 and the SDHAF1 gene expression (control 16.174, P 0.024) was 17.490. It also gave an ALDH18A1 gene expression (control 16.206, P 0.012) of 18.398, a BIRC6 gene expression (control 16.315, P 0.045) of 14.545 and an SMCR8 gene expression (control 16.386, P 0.025) of 9.923. For the same compound, the SCARB2 gene expression (control 16.783, P 0.011) was 20.762, the HCFC1 gene expression (control 17.149, P 0.014) was 21.365 and the MT-TV gene expression (control 17.283, P 0.000) was 9.882. For the same compound, the KCTD7 gene expression (control 18.066, P 0.016) was 14.737, the CDK1 gene expression (control 18.213, P 0.001) was 31.665 and the WDR45 gene expression (control 18.358, P 0.008) was 10.730. It also gave an ATP6V1A gene expression (control 18.408, P 0.038) of 16.105, an ATXN7L3B gene expression (control 19.279, P 0.006) of 20.868 and an MT-TY gene expression (control 19.436, P 0.034) of 14.109. It also gave a DNAJB6 gene expression (control 19.482, P 0.010) of 13.438, an MT-TN gene expression (control 19.578, P 0.001) of 4.546 and a DNMT1 gene expression (control 19.641, P 0.019) of 19.982. For the same compound, the HRAS gene expression (control 19.713, P 0.000) was 18.552, the SNHG1 gene expression (control 19.818, P 0.004) was 17.384 and the SYP gene expression (control 20.006, P 0.004) was 15.060. The BACE1 gene expression (control 20.034, P 0.031) was 16.945, the ACHE gene expression (control 20.557, P 0.010) was 15.012 and the SMARCC1 gene expression (control 21.060, P 0.050) was 23.108. For the same compound, the CPT1C gene expression (control 21.622, P 0.000) was 23.209, the SETD1A gene expression (control 22.012, P 0.020) was 11.489 and the LRP10 gene expression (control 23.073, P 0.013) was 19.237. For the same compound, the DIAPH1 gene expression (control 23.288, P 0.016) was 23.289, the NDUFS4 gene expression (control 23.590, P 0.040) was 31.457 and the TIA1 gene expression (control 24.343, P 0.029) was 18.552. For the same compound, the SORCS1 gene expression (control 24.655, P 0.014) was 27.879, the MADD gene expression (control 24.804, P 0.015) was 17.028 and the MAP1B gene expression (control 25.187, P 0.004) was 31.197. It also gave a PNPLA6 gene expression (control 25.949, P 0.007) of 14.472, an HTRA2 gene expression (control 26.112, P 0.003) of 24.427 and an FUS gene expression (control 26.563, P 0.006) of 23.115. It also gave a CHRNA3 gene expression (control 26.776, P 0.015) of 35.011, an STARD7 gene expression (control 27.791, P 0.022) of 25.690 and an RGS4 gene expression (control 28.376, P 0.019) of 23.445. It also gave an RRM2B gene expression (control 28.427, P 0.027) of 15.106, an OTUD5 gene expression (control 29.629, P 0.024) of 29.255 and an MMADHC gene expression (control 29.814, P 0.009) of 28.376. It also gave a PHF1 gene expression (control 31.064, P 0.022) of 22.592, an XPR1 gene expression (control 31.247, P 0.010) of 53.075 and a TFG gene expression (control 31.479, P 0.015) of 30.210. The DEGS1 gene expression (control 32.375, P 0.003) was 28.878, the SQSTM1 gene expression (control 32.378, P 0.007) was 38.955 and the TCF4 gene expression (control 32.383, P 0.017) was 36.707. For the same compound, the PDGFRB gene expression (control 32.930, P 0.001) was 20.075, the UNC5C gene expression (control 33.422, P 0.001) was 34.253 and the COL3A1 gene expression (control 34.958, P 0.008) was 29.884. The MT-TQ gene expression (control 37.146, P 0.001) was 28.576, the NID1 gene expression (control 38.202, P 0.008) was 51.536 and the COASY gene expression (control 38.304, P 0.003) was 24.487. The TMEM230 gene expression (control 40.014, P 0.054) was 35.809, the GRN gene expression (control 43.913, P 0.009) was 38.715 and the SOD1 gene expression (control 44.413, P 0.023) was 54.134. The HNRNPDL gene expression (control 44.506, P 0.001) was 58.385, the EIF4G1 gene expression (control 46.194, P 0.005) was 47.437 and the VCP gene expression (control 49.074, P 0.025) was 49.391. For the same compound, the ATP6V1E1 gene expression (control 51.257, P 0.048) was 41.488, the GBA2 gene expression (control 53.427, P 0.010) was 42.069 and the PARK7 gene expression (control 54.907, P 0.006) was 62.824. It also gave an EEF1A2 gene expression (control 63.840, P 0.016) of 77.336, an MT-TP gene expression (control 74.063, P 0.023) of 57.524 and a U2AF2 gene expression (control 88.738, P 0.014) of 53.895. For the same compound, the MT-TS1 gene expression (control 108.757, P 0.004) was 75.947, the PRDX1 gene expression (control 137.725, P 0.007) was 123.771 and the HNRNPA1 gene expression (control 180.363, P 0.003) was 274.269. For the same compound, the GNAS gene expression (control 193.754, P 0.003) was 202.087, the MT-ND6 gene expression (control 281.366, P 0.001) was 64.249 and the APP gene expression (control 293.865, P 0.033) was 159.632. For the same compound, the PFN1 gene expression (control 386.845, P 0.010) was 384.213, the MT-ATP8 gene expression (control 388.214, P 0.017) was 298.175 and the FTL gene expression (control 423.318, P 0.015) was 514.018. The MT-ND5 gene expression (control 1304.948, P 0.012) was 1379.984, the MT-ND1 gene expression (control 2654.440, P 0.010) was 2177.390 and the MT-ND2 gene expression (control 2855.888, P 0.019) was 2011.949. The MT-CYB gene expression (control 4523.043, P 0.003) was 4140.601, the MT-CO3 gene expression (control 6360.482, P 0.003) was 6139.890 and the MT-ATP6 gene expression (control 6754.328, P 0.009) was 5525.655. For the same compound, the COL4A1 gene expression (first listing, control 3.205, P 0.014) was 6.341, the APBB2 gene expression (first listing, control 7.376, P 0.015) was 5.038 and the MTR gene expression (first listing, control 7.739, P 0.018) was 9.723. It also gave a DNAJC6 gene expression (first listing, control 11.205, P 0.017) of 14.537, a TWNK gene expression (first listing, control 25.053, P 0.010) of 15.384 and a COL4A1 gene expression (second listing, control 3.206, P 0.014) of 4.649. The APBB2 gene expression (second listing, control 7.118, P 0.015) was 6.231, the MTR gene expression (second listing, control 8.443, P 0.018) was 8.954 and the DNAJC6 gene expression (second listing, control 12.142, P 0.017) was 12.821. The TWNK gene expression (second listing, control 22.506, P 0.010) was 19.867.
